Assay results: the Kinase Knowledgebase extract (Sharma et al. 2016)

Target: CDK2 (human) (UniProt P24941)
Assay: Enzyme Assay

IC50, < 1 µM:
CCc1cc(-c2nc(-c3cc4cc(Cl)ccc4[nH]c3=O)cs2)ccn1
CC(C)N(C)Cc1ccc2cc(-c3csc(CS(=O)(=O)c4ccccc4)n3)c(=O)[nH]c2c1
CC1CCCN(Cc2ccc3cc(-c4csc(CS(=O)(=O)c5ccccc5)n4)c(=O)[nH]c3c2)C1 (stereo not given)
O=c1[nH]c2cc(O)ccc2cc1-c1csc(CS(=O)(=O)c2ccccc2)n1
CC(C)NCc1ccc2cc(-c3csc(-c4ccncc4)n3)c(=O)[nH]c2c1
O=c1[nH]c2cc(CN3CCC(O)CC3)ccc2cc1-c1csc(-c2ccncc2)n1
O=c1[nH]c2ccccc2cc1-c1csc(-c2ccncc2)n1
O=c1[nH]c2cc(CNC3CCCC3)ccc2cc1-c1csc(-c2ccncc2)n1
O=C(c1ccc2cc(-c3csc(CS(=O)(=O)c4ccccc4)n3)c(=O)[nH]c2c1)N1CCOCC1
CC(C)[C@H]1CN(Cc2ccc3cc(-c4csc(CS(=O)(=O)c5ccccc5)n4)c(=O)[nH]c3c2)CCN1
COc1ccc2cc(-c3csc(CS(=O)(=O)c4ccccc4)n3)c(=O)[nH]c2c1
O=c1[nH]c2cc(CN3CCCCC3)ccc2cc1-c1csc(CS(=O)(=O)c2ccccc2)n1
Nc1c(-c2csc(-c3ccncc3)n2)c(=O)[nH]c2ccc(Cl)cc12
O=c1[nH]c2cc(CN3CCCCC3)ccc2cc1-c1csc(-c2ccncc2)n1
CC(C)C(CO)NCc1ccc2cc(-c3csc(-c4ccncc4)n3)c(=O)[nH]c2c1 (stereo not given)
O=c1[nH]c2ccccc2cc1-c1csc(-c2cccc(Cl)c2Cl)n1
O=c1[nH]c2ccccc2c(O)c1-c1csc(-c2ccncc2)n1
CN1CCN(C(=O)c2ccc3cc(-c4csc(N(C)S(=O)(=O)c5ccccc5)n4)c(=O)[nH]c3c2)CC1
CN(c1nc(-c2cc3ccc(C(=O)O)cc3[nH]c2=O)cs1)S(=O)(=O)c1ccccc1
CC(C)CNCc1ccc2cc(-c3csc(-c4ccncc4)n3)c(=O)[nH]c2c1
C=CCN(c1nc(-c2cc3ccccc3[nH]c2=O)cs1)S(=O)(=O)c1ccccc1
CCN(CCN(C)C)Cc1ccc2cc(-c3csc(-c4ccncc4)n3)c(=O)[nH]c2c1
COC(=O)c1ccc2cc(-c3csc(N(C)S(=O)(=O)c4ccccc4)n3)c(=O)[nH]c2c1
O=c1[nH]c2ccccc2cc1-c1csc(C[S+]([O-])c2ccccc2)n1 (stereo not given)
CN(C)CCOc1ccc2cc(-c3csc(-c4ccncc4)n3)c(=O)[nH]c2c1
O=c1[nH]c2ccccc2cc1-c1csc(-c2ccnc(OCCN3CCCCC3)c2)n1
O=c1[nH]c2ccccc2cc1-c1csc(CS(=O)(=O)c2ccccn2)n1
Cc1onc(-c2ccccc2)c1-c1csc(-c2cc3ccccc3[nH]c2=O)n1
COC(=O)c1cccc2[nH]c(=O)c(-c3csc(-c4ccncc4)n3)cc12
O=c1[nH]c2cc(CO)ccc2cc1-c1csc(CS(=O)(=O)c2ccccc2)n1
O=c1[nH]c2cc(C(F)(F)F)ccc2cc1-c1csc(CS(=O)(=O)c2ccccc2)n1
CCN(CCN(C)C)C(=O)c1ccc2cc(-c3csc(-c4ccncc4)n3)c(=O)[nH]c2c1
O=c1[nH]c2cc(CN3CCCC3)ccc2cc1-c1csc(-c2ccncc2)n1
O=c1[nH]c2ccccc2cc1-c1csc(CS(=O)(=O)c2ccccc2)n1
O=c1ccc(-c2nc(-c3cc4ccccc4[nH]c3=O)cs2)c[nH]1
C[C@@H]1CN(Cc2ccc3cc(-c4csc(CS(=O)(=O)c5ccccc5)n4)c(=O)[nH]c3c2)C[C@H](C)N1
CCc1cc(-c2nc(-c3cc4ccccc4[nH]c3=O)cs2)ccn1
CN(c1nc(-c2cc3ccccc3[nH]c2=O)cs1)S(=O)(=O)c1ccccc1
Nc1ccc(-c2nc(-c3cc4ccccc4[nH]c3=O)cs2)cc1
CCN(CC)CCN(C)Cc1ccc2cc(-c3csc(-c4ccncc4)n3)c(=O)[nH]c2c1
O=c1[nH]c2cc(CO)ccc2cc1-c1csc(-c2ccncc2)n1
O=c1[nH]c2cc(CN3CCCC(O)C3)ccc2cc1-c1csc(-c2ccncc2)n1 (stereo not given)
O=c1[nH]c2ccccc2cc1-c1csc(-c2ccnc(NCCCO)c2)n1
O=c1[nH]c2cc(C(F)(F)F)ccc2cc1-c1csc(-c2ccc3c(c2)OCO3)n1
Nc1c(-c2csc(-c3ccncc3)n2)c(=O)[nH]c2ccccc12
COc1ccc(-c2nc(-c3cc4ccccc4[nH]c3=O)cs2)cn1
O=c1[nH]c2ccccc2cc1-c1csc(-c2cccnc2)n1
CSc1ncc2cc(-c3csc(-c4ccncc4)n3)c(=O)[nH]c2n1
CC1CN(Cc2ccc3cc(-c4csc(CS(=O)(=O)c5ccccc5)n4)c(=O)[nH]c3c2)CCN1 (stereo not given)
CN1CCN(c2ccc3[nH]c(=O)c(-c4csc(-c5ccncc5)n4)c(N)c3c2)CC1
O=c1[nH]c2cc(CN3CC=CCC3)ccc2cc1-c1csc(CS(=O)(=O)c2ccccc2)n1
COc1ccc2cc(-c3csc(-c4ccnc(Cl)c4)n3)c(=O)[nH]c2c1
CC(C)(c1nc(-c2cc3ccccc3[nH]c2=O)cs1)S(=O)(=O)c1ccccc1
CC1CN(Cc2ccc3cc(-c4csc(-c5ccncc5)n4)c(=O)[nH]c3c2)CCN1 (stereo not given)
CN(c1nc(-c2cc3ccccc3[nH]c2=O)cs1)S(=O)(=O)c1ccc(Br)cc1
O=c1[nH]c2ccccc2cc1-c1csc(-c2ccnc(N3CCCCC3)c2)n1
O=c1[nH]c2ccccc2cc1-c1csc(-c2ccc(O)cc2)n1
COc1cc2[nH]c(=O)c(-c3csc(-c4ccncc4)n3)c(N)c2cc1OC
CCNCCNc1ncc2cc(-c3csc(-c4ccncc4)n3)c(=O)[nH]c2n1
CCN(CC)CCN(C)c1ncc2cc(-c3csc(-c4ccncc4)n3)c(=O)[nH]c2n1
O=C(c1ccc2cc(-c3csc(CS(=O)(=O)c4ccccc4)n3)c(=O)[nH]c2c1)N1CCCCC1
O=c1[nH]c2ccccc2cc1-c1csc(-c2ccc(-c3csnn3)cc2)n1
COc1ccc2cc(-c3csc(C(C)(C)S(=O)(=O)c4ccccc4)n3)c(=O)[nH]c2c1
CCN(CC)Cc1ccc2cc(-c3csc(CS(=O)(=O)c4ccccc4)n3)c(=O)[nH]c2c1
Nc1nc(-c2ccncc2)ncc1-c1nc(-c2cc3ccccc3[nH]c2=O)cs1
CN1CCN(Cc2ccc3cc(-c4csc(-c5ccncc5)n4)c(=O)[nH]c3c2)CC1
Nc1c(-c2csc(-c3ccncc3)n2)c(=O)[nH]c2ccc(N3CCCCC3)cc12
O=c1[nH]c2ccccc2cc1-c1nc(-c2cccc([N+](=O)[O-])c2)cs1
O=c1[nH]c2cc(CN3CCC(O)C3)ccc2cc1-c1csc(-c2ccncc2)n1 (stereo not given)
O=c1[nH]c2ccccc2cc1-c1csc(CS(=O)(=O)c2cccs2)n1
CN1CCN(C(=O)c2ccc3cc(-c4csc(-c5ccncc5)n4)c(=O)[nH]c3c2)CC1
CC1CC(C)CN(Cc2ccc3cc(-c4csc(CS(=O)(=O)c5ccccc5)n4)c(=O)[nH]c3c2)C1 (stereo not given)
O=C(c1ccc2cc(-c3csc(-c4ccncc4)n3)c(=O)[nH]c2c1)N1CCCCC1
O=c1[nH]c2cc(CN3CCOCC3)ccc2cc1-c1csc(-c2ccncc2)n1
CN1CCN(C(=O)c2ccc3cc(-c4csc(CS(=O)(=O)c5ccccc5)n4)c(=O)[nH]c3c2)CC1
CCN(CC)C(=O)c1ccc2cc(-c3csc(N(C)S(=O)(=O)c4ccccc4)n3)c(=O)[nH]c2c1
O=c1[nH]c2cc(CN3CCC3)ccc2cc1-c1csc(-c2ccncc2)n1
O=c1[nH]c2cc(OCCN3CCOCC3)ccc2cc1-c1csc(-c2ccncc2)n1
O=c1[nH]c2cc(C(F)(F)F)ccc2cc1-c1csc(-c2ccncc2)n1
CC1CN(Cc2ccc3cc(-c4csc(-c5ccncc5)n4)c(=O)[nH]c3c2)CC(C)O1 (stereo not given)
CCN(CC)CCOc1cc(-c2nc(-c3cc4ccccc4[nH]c3=O)cs2)ccn1
CN1CCN(Cc2ccc3cc(-c4csc(CS(=O)(=O)c5ccccc5)n4)c(=O)[nH]c3c2)CC1
O=c1[nH]c2ccc(F)cc2cc1-c1csc(-c2ccncc2)n1
CCN(CC)Cc1ccc2cc(-c3csc(-c4ccncc4)n3)c(=O)[nH]c2c1
O=c1[nH]c2cc3c(cc2cc1-c1csc(-c2ccncc2)n1)OCO3
O=c1[nH]c2cc(C(F)(F)F)ccc2cc1-c1csc(CS(=O)(=O)c2cccs2)n1
CC(C)N(C)Cc1ccc2cc(-c3csc(-c4ccncc4)n3)c(=O)[nH]c2c1
CN(c1nc(-c2cc3ccccc3[nH]c2=O)cs1)S(=O)(=O)c1cccc(F)c1
CCN(CC)C(=O)c1cccc2[nH]c(=O)c(-c3csc(-c4ccncc4)n3)cc12
CC1CC(C)CN(Cc2ccc3cc(-c4csc(-c5ccncc5)n4)c(=O)[nH]c3c2)C1 (stereo not given)
CC1CN(Cc2ccc3cc(-c4csc(CS(=O)(=O)c5ccccc5)n4)c(=O)[nH]c3c2)CC(C)O1 (stereo not given)
CC1CCCN(Cc2ccc3cc(-c4csc(-c5ccncc5)n4)c(=O)[nH]c3c2)C1 (stereo not given)
CSc1nc2[nH]c(=O)c(-c3csc(-c4ccncc4)n3)cc2s1
CC(C)NC[C@H]1CCCN1Cc1ccc2cc(-c3csc(CS(=O)(=O)c4ccccc4)n3)c(=O)[nH]c2c1
O=c1[nH]c2ccccc2cc1-c1nc(-c2ccncc2)cs1
